Results taken from US11866405B2, “Substituted indazoles as IRAK4 inhibitors” (AstraZeneca AB, priority 2020, dated 2024).

Columns and labels:
[1] = biological target: human recombinant IRAK4 protein (Homo sapiens (Human), UniProt Q9NWZ3); test: IRAK4 enzyme assay (mass spectrometry readout); format: biochemical; conditions: 3 mM ATP, 0.2 nM enzyme; geometric mean of at least n=2, * single experiment
Procedure: Potency of IRAK4 Inhibitor Compounds in IRAK4 Enzyme Assay
The inhibitory activity of compounds against IRAK4 were determined in an enzymatic assay using mass spectrometry readout. Ten point half-log compound concentration response curves, with a top concentration of 1 μM or 10 μM, were generated from 10 mM stocks of compound solubilized in DMSO using an Echo 655 (Labcyte Inc) and added to 384 well assay plates (Greiner #781280). To the assay plates, 10 μL of human recombinant IRAK4 protein (Life Technologies #PV4002) diluted to a final concentration of 0.2 nM in assay buffer (50 mM Tris-HCl pH 7.4, 10 mM MgCl, 5 mM glutathione, 0.01% BSA, 3 mM ATP) was added. The enzyme was incubated with the compounds at room temperature for 15 minutes before a peptide substrate ([…], Innovagen custom synthesis, 10 mM in DMSO) was added to each well to a final concentration of 10 μM using an Echo 655 (Labcyte Inc). After two hours at room temperature, the reaction was stopped with 90 μL of 0.4% formic acid (Merck #33015). The unphosphorylated and phosphorylated peptide were measured by LC-MS/MS on a Waters TQ-S mass spectrometer. Peaks were integrated using the TargetLynx software and the ratios between phosphorylated and unphosphorylated peptides were calculated. Curves were fitted and compound potencies determined in Genedata Screener 15 (Genedata AG). Data presented are the geometric mean of at least n=2, or as denoted by an * are obtained from a single experiment.

[2] = biological target: IRAK4 auto-phosphorylation (Homo sapiens (Human), UniProt Q9NWZ3); test: IRAK4 phosphorylation cell assay in IL-1β-stimulated Karpas-299 cells; format: cell-based; conditions: IL-1β 22.7 ng/mL, pIRAK4 (Thr345/Ser346), geometric mean of at least 2 experiments
Procedure: IRAK4 Phosphorylation Cell Assay
The activation of IRAK4 by TLR or IL-1R ligands leads to IRAK4 auto-phosphorylation, which can be prevented by IRAK4 kinase inhibitors. The effect of IRAK4 inhibitor compounds on IRAK4 auto-phosphorylation was assessed in IL-1β-stimulated Karpas-299 cells as a measurement of cellular potency. Karpas-299 cells were cultured in RPMI 1640 (Gibco 61870-010) containing 10% FBS (Gibco #10270). Cells were plated at 2×10^4 cells per well in poly-D-lysine coated 384 well plates (Corning #356663) to which compounds had been added at various concentrations (10 point half log dose response with a final top concentration of 30 μM) using an Echo 655 (Labcyte Inc). Cells were centrifuged (250 g, 4 mins), incubated at 37° C. for 1 h, then stimulated with 22.7 ng/mL recombinant IL-1β (R&D Systems, #201-LB-025) at 37° C. for 10 mins, followed by fixation in 4% paraformaldehyde for 10 mins and permeabilization in ice-cold 70% MeOH for 30 mins. Cells were washed twice with phosphate-buffered saline (PBS) on a BlueWasher (BlueCatBio) then blocked with PBS containing 10% FBS for 20 mins. Blocking solution was removed with a BlueWasher and cells were stained with anti-pIRAK4 (Thr345/Ser346) (CST, #11927, 1:400) in blocking buffer with 0.05% Tween-20 for 1 h, then washed twice with PBS containing 0.05% Tween-20 on a BlueWasher, followed by staining with a Alexa 647-conjugated secondary anti-rabbit IgG antibody (CST, #4414, 1:2,000) and Hoechst 33342 (Sigma, 1:2,000) in blocking buffer with 0.05% Tween-20 for 30 mins. Finally, the cells were washed twice with PBS containing 0.05% Tween-20 and imaged on an ImageXpress Micro (Molecular Devices) with a 10× air objective using the appropriate filters. Images were analysed in Columbus (PerkinElmer) and the fluorescence intensity per cell from the secondary antibody was quantified. The quantified data were analysed in Genedata Screener 15 (Genedata AG). […] IC50 values are the geometric mean of at least 2 experiments.

Sequence of IRAK4 auto-phosphorylation (Q9NWZ3 whole entry): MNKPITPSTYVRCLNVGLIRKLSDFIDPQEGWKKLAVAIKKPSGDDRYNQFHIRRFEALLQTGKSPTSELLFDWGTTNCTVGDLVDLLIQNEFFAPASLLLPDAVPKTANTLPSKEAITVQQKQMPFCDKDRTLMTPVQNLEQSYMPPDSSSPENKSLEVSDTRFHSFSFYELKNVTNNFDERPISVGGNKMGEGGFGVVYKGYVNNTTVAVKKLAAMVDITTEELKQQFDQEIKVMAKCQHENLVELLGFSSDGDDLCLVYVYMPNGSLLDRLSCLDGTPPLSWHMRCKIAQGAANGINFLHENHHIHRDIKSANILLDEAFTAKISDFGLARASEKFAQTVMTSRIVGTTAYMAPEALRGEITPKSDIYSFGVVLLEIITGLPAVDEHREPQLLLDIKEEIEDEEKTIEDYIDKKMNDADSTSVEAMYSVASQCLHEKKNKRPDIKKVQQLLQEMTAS
Sequence of human recombinant IRAK4 protein (Q9NWZ3 whole entry): as above

“6-Cyclopropoxy-2-((1s,4s)-4-(N-methylacetamido)cyclohexyl)-N-(pyrazolo[1,5-a]pyrimidin-3-yl)-2H-indazole-5-carboxamide [Example 32]” gave an IC50 [1] of 10.6 nM and an IC50 [2] of 257 nM.
In the case of `COc1cc2nn([C@H]3CC[C@@H](O)C[C@@H]3C)cc2cc1C(=O)Nc1cnn2cccnc12` (relative stereo) [Example 40], the IC50 [2] is reported as 158 nM.
In the case of `COc1cc2nn([C@H]3CC[C@@H](O)C[C@@H]3C)cc2cc1C(=O)Nc1cnn2cccnc12` (relative stereo) [Example 41], the IC50 [1] is reported as 14.3 nM and the IC50 [2] is reported as 331 nM.
`C[C@H]1C[C@H](O)CC[C@@H]1n1cc2cc(C(=O)Nc3cnn4cccnc34)c(OC3CC3)cc2n1` (relative stereo) [Example 42, rel-6-Cyclopropoxy-2-(1S,2S,4R)-4-hydroxy-2-methylcyclohexyl)-N-(pyrazolo[1,5-a]pyrimidin-3-yl)-2H-indazole-5-carboxamide] was tested, and the IC50 [2] was 89 nM.
For `C[C@H]1C[C@H](O)CC[C@@H]1n1cc2cc(C(=O)Nc3cnn4cccnc34)c(OC3CC3)cc2n1` (relative stereo) [Example 43, rel-6-Cyclopropoxy-2-(1S,2S,4R)-4-hydroxy-2-methylcyclohexyl)-N-(pyrazolo[1,5-a]pyrimidin-3-yl)-2H-indazole-5-carboxamide], the IC50 [1] was 1.8 nM and the IC50 [2] was 101 nM.
With `C[C@@]1(O)CCC[C@H](n2cc3cc(C(=O)Nc4cnn5cccnc45)c(OC4CC4)cc3n2)C1` (relative stereo) [Example 54, rel-6-cyclopropoxy-2-(1S,3R)-3-hydroxy-3-methylcyclohexyl)-N-(pyrazolo[1,5-a]pyrimidin-3-yl)-2H-indazole-5-carboxamide] the IC50 [2] was 25 nM.
Work on `C[C@@]1(O)CCC[C@H](n2cc3cc(C(=O)Nc4cnn5cccnc45)c(OC4CC4)cc3n2)C1` (relative stereo) [Example 55, rel-6-cyclopropoxy-2-(1S,3R)-3-hydroxy-3-methylcyclohexyl)-N-(pyrazolo[1,5-a]pyrimidin-3-yl)-2H-indazole-5-carboxamide] yielded an IC50 [1] of 0.7 nM and an IC50 [2] of 51 nM.
In the case of `COc1cc2nn([C@@H]3CC[C@]4(CC(=O)N(C)C4)C[C@H]3C)cc2cc1C(=O)Nc1cnc2cccnn12` (relative stereo) [Example 70, rel-2-(5R,7R,8R)-2,7-Dimethyl-3-oxo-2-azaspiro[4.5]decan-8-yl)-N-(imidazo[1,2-b]pyridazin-3-yl)-6-methoxy-2H-indazole-5-carboxamide or rel-2-(5R,7S,8S)-2,7-Dimethyl-3-oxo-2-azaspiro[4.5]decan-8-yl)-N-(imidazo[1,2-b]pyridazin-3-yl)-6-methoxy-2H-indazole-5-carboxamide], the IC50 [1] is reported as 0.4 nM and the IC50 [2] is reported as 9 nM.
`COc1cc2nn([C@@H]3CC[C@]4(CC(=O)N(C)C4)C[C@H]3C)cc2cc1C(=O)Nc1cnc2cccnn12` (relative stereo) [Example 71, rel-2-(5R,7R,8R)-2,7-Dimethyl-3-oxo-2-azaspiro[4.5]decan-8-yl)-N-(imidazo[1,2-b]pyridazin-3-yl)-6-methoxy-2H-indazole-5-carboxamide or rel-2-(5R,7S,8S)-2,7-Dimethyl-3-oxo-2-azaspiro[4.5]decan-8-yl)-N-(imidazo[1,2-b]pyridazin-3-yl)-6-methoxy-2H-indazole-5-carboxamide] showed an IC50 [1] of 1.9 nM and an IC50 [2] of 30 nM.
In the case of `COc1cc2nn([C@@H]3CC[C@]4(CC(=O)N(C)C4)C[C@H]3C)cc2cc1C(=O)Nc1cnc2cccnn12` (relative stereo) [Example 72, rel-2-(5R,7R,8R)-2,7-Dimethyl-3-oxo-2-azaspiro[4.5]decan-8-yl)-N-(imidazo[1,2-b]pyridazin-3-yl)-6-methoxy-2H-indazole-5-carboxamide or rel-2-(5R,7S,8S)-2,7-Dimethyl-3-oxo-2-azaspiro[4.5]decan-8-yl)-N-(imidazo[1,2-b]pyridazin-3-yl)-6-methoxy-2H-indazole-5-carboxamide], the IC50 [1] is reported as 0.4 nM and the IC50 [2] is reported as 7 nM.
With `COc1cc2nn([C@@H]3CC[C@]4(CC(=O)N(C)C4)C[C@H]3C)cc2cc1C(=O)Nc1cnc2cccnn12` (relative stereo) [Example 73, rel-2-(5R,7R,8R)-2,7-Dimethyl-3-oxo-2-azaspiro[4.5]decan-8-yl)-N-(imidazo[1,2-b]pyridazin-3-yl)-6-methoxy-2H-indazole-5-carboxamide or rel-2-(5R,7S,8S)-2,7-Dimethyl-3-oxo-2-azaspiro[4.5]decan-8-yl)-N-(imidazo[1,2-b]pyridazin-3-yl)-6-methoxy-2H-indazole-5-carboxamide] the IC50 [1] was 3.2 nM and the IC50 [2] was 57 nM.
`COc1cc2nn([C@H]3CCC[C@H](O)[C@@H]3C)cc2cc1C(=O)Nc1cnc2cccnn12` (relative stereo) [Example 106, rel-2-(1S,2R,3S)-3-Hydroxy-2-methylcyclohexyl)-N-(imidazo[1,2-b]pyridazin-3-yl)-6-methoxy-2H-indazole-5-carboxamide] was tested, and the IC50 [2] was 15 nM.
`COc1cc2nn([C@H]3CCC[C@H](O)[C@@H]3C)cc2cc1C(=O)Nc1cnc2cccnn12` (relative stereo) [Example 107, rel-2-(1S,2R,3S)-3-Hydroxy-2-methylcyclohexyl)-N-(imidazo[1,2-b]pyridazin-3-yl)-6-methoxy-2H-indazole-5-carboxamide] gave an IC50 [1] of 0.9 nM and an IC50 [2] of 24 nM.
`COc1cc2nn([C@H]3CC[C@H](N(C)C(=O)[C@@H]4CC[C@@H](O)C4)CC3)cc2cc1C(=O)Nc1cnn2cccnc12` (relative stereo) [Example 112] was tested, and the IC50 [1] was 0.7 nM and the IC50 [2] was 21 nM.
With `COc1cc2nn([C@H]3CC[C@H](N(C)C(=O)[C@@H]4CC[C@@H](O)C4)CC3)cc2cc1C(=O)Nc1cnn2cccnc12` (relative stereo) [Example 113] the IC50 [1] was 0.7 nM and the IC50 [2] was 23 nM.
For `COc1cc2nn([C@H]3CC[C@H](N(C)C(=O)[C@@H]4CC[C@H](O)C4)CC3)cc2cc1C(=O)Nc1cnn2cccnc12` (relative stereo) [Example 114], the IC50 [1] was 0.7 nM and the IC50 [2] was 16 nM.
`COc1cc2nn([C@H]3CC[C@H](N(C)C(=O)[C@@H]4CC[C@H](O)C4)CC3)cc2cc1C(=O)Nc1cnn2cccnc12` (relative stereo) [Example 115] was tested, and the IC50 [2] was 20 nM.
For `COc1cc2nn([C@@H]3CC[C@]4(CCC(=O)N4C)C[C@H]3C)cc2cc1C(=O)Nc1cnc2cccnn12` (relative stereo) [Example 123, rel-2-(5S,7R,8R)-1,7-Dimethyl-2-oxo-1-azaspiro[4.5]decan-8-yl)-N-(imidazo[1,2-b]pyridazin-3-yl)-6-methoxy-2H-indazole-5-carboxamide], the IC50 [1] was 3 nM.
Work on `COc1cc2nn(C3CCC4(CC3)CC(C)(O)C4)cc2cc1C(=O)Nc1cnc2cccnn12` (single isomer, unassigned) [Example 6, 2-(2-Hydroxy-2-methylspiro[3.5]nonan-7-yl)-N-(imidazo[1,2-b]pyridazin-3-yl)-6-methoxy-2H-indazole-5-carboxamide] yielded an IC50 [1] of 0.7 nM and an IC50 [2] of 44 nM.
`COc1cc2nn([C@H]3CCC[C@@H](O)C3)cc2cc1C(=O)Nc1cnc2cccnn12` (single isomer, unassigned) [Example 9] was tested, and the IC50 [1] was 1.6 nM and the IC50 [2] was 57 nM.
`COc1cc2nn([C@@H]3CC[C@H](O)[C@H](C)C3)cc2cc1C(=O)Nc1cnc2cccnn12` (single isomer, unassigned) [Example 76] showed an IC50 [1] of 2.3 nM.
`COc1cc2nn([C@H]3CC[C@H](N(C)C(=O)[C@H](C)O)CC3)cc2cc1C(=O)Nc1cnc2cccnn12` [Example 94, 2-((1S,4r)-4-((S)-2-Hydroxy-N-methylpropanamido)cyclohexyl)-N-(imidazo[1,2-b]pyridazin-3-yl)-6-methoxy-2H-indazole-5-carboxamide] showed an IC50 [2] of 10 nM.
